{
  "source": "patent US12435045B2",
  "about": "“Tyrosine kinase inhibitors and pharmaceutical application thereof” (JIANGSU CONCORD BIOTECHNOLOGY CO., LTD, priority 2021, dated 2025)",
  "test_system": "40 L of mesothelioma cell lines",
  "assay": "cell plate cloning experiment to detect cell proliferation",
  "type": "cell-based",
  "details": "30 μM pretreatment; 200 cells/well; results after 10 days; compared with gefitinib 30 μM; FIG. 2",
  "experimental": "Effects of the compound prepared in Example 1 and gefitinib were tested and compared. Experiment 1 included cell plate cloning experiments to detect cell proliferation.\n• (1) 30 μM of gefitinib was used to pretreat one group of 40 L of mesothelioma cell lines, 30 μM of the compound prepared in Example 1 were used to pretreat another group of 40 L of mesothelioma cell lines, and phosphate-buffered saline (PBS) was used as a blank control group; • (2) The 40 L of cell lines in different treatment groups were collected; the cells were counted under a microscope, the cells were inoculated in a six-well plate by adjusting the number of cells to 200 cells/well (2 mL) with corresponding complete medium, and the cells were cultured in an incubator containing 5% CO2 at 37° C.; • (3) Fresh complete medium was changed every 3 days; • (4) After about 7-10 days of continuous culture, the culture medium was discarded, the cells were carefully washed with 1×PBS 3 times, and 1 mL of 4% paraformaldehyde was added to each culture dish to fix the cells for 30 minutes. The paraformaldehyde was discarded, and the cells were washed again with 1×PBS 3 times. The cells were stained with crystal violet at room temperature for 10 min, the staining solution was discarded, and the cells were washed with 1×PBS 3 times; and • (5) the cells were pictured with a camera and counted for statistical analysis. 2. […]",
  "data": [
    {"compound": "COc1cc2ncnc(Nc3ccc(F)c(Cl)c3)c2cc1NC(=O)CBr", "note": "[Example 1, 4-((4-fluoro-3-chlorophenyl)amino)-7-methoxy-6-((N-bromoacetyl)amino)quinazoline]", "values": [
      {"measurement": "ability in inhibiting the proliferation of tumor cells (plate cloning, colony count)", "value": "significantly better ability in inhibiting the proliferation of tumor cells than gefitinib"}
    ]}
  ]
}
